The results in this text go back to ChEMBL document CHEMBL4602639, “A novel series of 11-O-carbamoyl-3-O-descladinosyl clarithromycin derivatives bearing 1,2,3-triazole group: Design, synthesis and antibacterial evaluation” (2020).

Each structure is given as a SMILES string. Values after ≈ are worked out from the molar mass of the structure shown. Active and inactive are the calls of the source. The rule behind the calls is not given here.

Assay [1] relates to Escherichia coli. Briefly: Antibacterial activity against penicillin-susceptible Escherichia coli ATCC 25922 by standard broth microdilution method. The format is functional.
In assay [2] the test system is Bacillus subtilis. Briefly: Antibacterial activity against penicillin-susceptible Bacillus subtilis ATCC 9372 by standard broth microdilution method. The format is functional.
For assay [3], the system named is Staphylococcus aureus. Briefly: Antibacterial activity against erythromycin-susceptible Staphylococcus aureus ATCC 25923 by standard broth microdilution method. It counts as functional.
In assay [4] the test system is Staphylococcus aureus. Put plainly: Antibacterial activity against methicillin-resistant Staphylococcus aureus ATCC 43300 by standard broth microdilution method. It counts as functional.
In assay [5] the test system is Streptococcus pneumoniae. Put plainly: Potency index, ratio of MIC of AZM to MIC of compound for antibacterial activity against erythromycin-resistant Streptococcus pneumoniae AB11 expressing ermB and me/A genes. It counts as functional.
The test system of assay [6] is Streptococcus pyogenes. Put plainly: Potency index, ratio of MIC of AZM to MIC of compound for antibacterial activity against erythromycin resistant Streptococcus pyogenes R1. The format is functional.
Assay [7] relates to Pseudomonas aeruginosa. Briefly: Antibacterial activity against penicillin-susceptible Pseudomonas aeruginosa ATCC 27853 by standard broth microdilution method. The format is functional.
The subject of assay [8] is Streptococcus pyogenes. Put plainly: Potency index, ratio of MIC of CAM to MIC of compound for antibacterial activity against erythromycin resistant Streptococcus pyogenes R1. It counts as functional.
Assay [9] relates to Streptococcus pneumoniae. Put plainly: Antibacterial activity against erythromycin-resistant Streptococcus pneumoniae B1 expressing ermB gene by standard broth microdilution method. The format is functional.
Assay [10] has as its system Streptococcus pneumoniae. Put plainly: Antibacterial activity against erythromycin-resistant Streptococcus pneumoniae AB11 expressing ermB and me/A genes by standard broth microdilution method. The format is functional.
Assay [11] concerns Streptococcus pneumoniae. Briefly: Potency index, ratio of MIC of CAM to MIC of compound for antibacterial activity against erythromycin-resistant Streptococcus pneumoniae AB11 expressing ermB and me/A genes. It counts as functional.
The test system of assay [12] is Streptococcus pyogenes. Briefly: Antibacterial activity against erythromycin resistant Streptococcus pyogenes R1 by standard broth microdilution method. It counts as functional.
Assay [13] has as its system Staphylococcus aureus. Put plainly: Potency index, ratio of MIC of CAM to MIC of compound for antibacterial activity against methicillin-resistant Staphylococcus aureus ATCC 43300. The format is functional.
The test system of assay [14] is Staphylococcus aureus. Put plainly: Potency index, ratio of MIC of AZM to MIC of compound for antibacterial activity against methicillin-resistant Staphylococcus aureus ATCC 43300. It counts as functional.
For assay [15], the system named is Streptococcus pneumoniae. Briefly: Ratio of MBC for erythromycin-resistant Streptococcus pneumoniae AB11 expressing ermB and me/A genes to MIC for erythromycin-resistant Streptococcus pneumoniae AB11 expressing ermB and me/A genes. The format is functional.
Assay [16] deals with Streptococcus pneumoniae. Briefly: Bactericidal activity against erythromycin-resistant Streptococcus pneumoniae AB11 expressing ermB and me/A genes. The format is functional.
In assay [17] the test system is Bacillus subtilis. Put plainly: Bactericidal activity against penicillin-susceptible Bacillus subtilis ATCC 9372. It counts as functional.
Assay [18] deals with Streptococcus pneumoniae. Briefly: Bacteriostatic activity against erythromycin-resistant Streptococcus pneumoniae AB11 expressing ermB and me/A genes at 1 to 4 MIC incubated for 9 to 24 hrs by time-kill curve assay. The format is functional, organism-based.
Assay [19] has as its system Streptococcus pneumoniae. Briefly: Bactericidal activity against erythromycin-resistant Streptococcus pneumoniae AB11 expressing ermB and me/A genes at 1 to 4 times of MIC incubated for 9 hrs by time-kill curve assay. It counts as functional, organism-based.
For assay [20], the system named is Bacillus subtilis. Briefly: Ratio of MBC for penicillin-susceptible Bacillus subtilis ATCC 9372 to MIC for penicillin-susceptible Bacillus subtilis ATCC 9372. The format is functional.
Assay [21] has as its system Streptococcus pneumoniae. Briefly: Potency index, ratio of MIC of AZM to MIC of compound for antibacterial activity against erythromycin-resistant Streptococcus pneumoniae B1 expressing ermB gene. The format is functional.
For assay [22], the system named is Streptococcus pneumoniae. Put plainly: Potency index, ratio of MIC of CAM to MIC of compound for antibacterial activity against erythromycin-resistant Streptococcus pneumoniae B1 expressing ermB gene. It counts as functional.

Turning to `CCCCc1ccc(-c2cn(CCCNC(=O)O[C@@H]3[C@@H](C)C(=O)[C@H](C)C[C@@](C)(OC)[C@H](O[C@H]4O[C@@H](C)C[C@@H](N(C)C)[C@@H]4O)[C@@H](C)C(=O)[C@@H](C)C(=O)O[C@H](CC)[C@@]3(C)O)nn2)cc1`, the MIC in [1] was > 128 µg/mL; in assay [2], 2 µg/mL (≈ 2.29 µM); in [3], 16 µg/mL (≈ 18.3 µM); in assay [4], 64 µg/mL (≈ 73.4 µM); in assay [7] it was 128 µg/mL (≈ 147 µM); in assay [9] it was 32 µg/mL (≈ 36.7 µM). The MIC in assay [10] was found to be 32 µg/mL (≈ 36.7 µM); in [12] it was 16 µg/mL (≈ 18.3 µM). The Ratio in assay [5] is reported as 8 - 16; in [6], 8 - 16; in assay [8], 8 - 16; in [11], 4 - 8; in assay [13], >4; in assay [14] it was >4.
Take `CC[C@H]1OC(=O)[C@H](C)C(=O)[C@H](C)[C@@H](O[C@H]2O[C@@H](C)C[C@@H](N(C)C)[C@@H]2O)[C@](C)(OC)C[C@@H](C)C(=O)[C@H](C)[C@@H](OC(=O)NCCCn2cc(-c3ccc(Cl)cc3)nn2)[C@]1(C)O`: the MIC in [1] is > 128 µg/mL; in [2] it was 1 µg/mL (≈ 1.18 µM); in [3] it was 4 µg/mL (≈ 4.7 µM); in [4], 128 µg/mL (≈ 151 µM); in assay [7], 128 µg/mL (≈ 151 µM); in assay [9], 64 µg/mL (≈ 75.3 µM). Also, the MIC stood at 16 µg/mL (≈ 18.8 µM) in assay [10] and 32 µg/mL (≈ 37.6 µM) in assay [12]. In addition, the Ratio is 1 in [15]; 8 - 16 in assay [5]; 8 - 16 in [6]; 8 - 16 in assay [8]; 4 - 8 in assay [11]; 512 in [20]. The MBC in assay [16] and in [17] was 128 µg/mL (≈ 151 µM) throughout. Further, the Activity result in [18] is “Dose-dependent effect”. Besides, in [19], the result was Active.
With `CC[C@H]1OC(=O)[C@H](C)C(=O)[C@H](C)[C@@H](O[C@H]2O[C@@H](C)C[C@@H](N(C)C)[C@@H]2O)[C@](C)(OC)C[C@@H](C)C(=O)[C@H](C)[C@@H](OC(=O)NCCCn2cc(-c3ccc(-c4ccccc4)cc3)nn2)[C@]1(C)O`, the MIC is > 128 µg/mL in [1]; 1 µg/mL (≈ 1.12 µM) in assay [2]; 4 µg/mL (≈ 4.48 µM) in assay [3]; 64 µg/mL (≈ 71.7 µM) in assay [4]; 128 µg/mL (≈ 143 µM) in assay [7]; 16 µg/mL (≈ 17.9 µM) in [9]. Further, the MIC in assay [10] and in [12] was 16 µg/mL (≈ 17.9 µM) each time. The Ratio in assay [15] is on record as 8; in [5], 8 - 16; in assay [21], >16; in assay [6], 8 - 16; in assay [8], 8 - 16; in assay [11] it was 4 - 8. The Ratio in [20] is reported as 32; in assay [22] it was >16; in assay [13] it was >4; in [14], >4. In addition, the MBC in assay [16] was determined as 128 µg/mL (≈ 143 µM); in assay [17], 32 µg/mL (≈ 35.9 µM).
